The compounds below were run against T1, Recombinant human CETP (Homo sapiens, UniProt P11597) (assay: CETP in vitro assay (fluorometric assay, Roar Biomedical; cholesterol ester transfer from HDL to LDL)). Conditions: recombinant human CETP from CHO cells; 3 hours at 37° C.; fluorescence 485/535 nm; compound concentrations between 1 nM and 30 μM; read-out: IC50 values for inhibition of CETP.
T1 construct: made in house; host or cells: CHO cells (secreted into conditioned medium)
T1 sequence (P11597 18-493): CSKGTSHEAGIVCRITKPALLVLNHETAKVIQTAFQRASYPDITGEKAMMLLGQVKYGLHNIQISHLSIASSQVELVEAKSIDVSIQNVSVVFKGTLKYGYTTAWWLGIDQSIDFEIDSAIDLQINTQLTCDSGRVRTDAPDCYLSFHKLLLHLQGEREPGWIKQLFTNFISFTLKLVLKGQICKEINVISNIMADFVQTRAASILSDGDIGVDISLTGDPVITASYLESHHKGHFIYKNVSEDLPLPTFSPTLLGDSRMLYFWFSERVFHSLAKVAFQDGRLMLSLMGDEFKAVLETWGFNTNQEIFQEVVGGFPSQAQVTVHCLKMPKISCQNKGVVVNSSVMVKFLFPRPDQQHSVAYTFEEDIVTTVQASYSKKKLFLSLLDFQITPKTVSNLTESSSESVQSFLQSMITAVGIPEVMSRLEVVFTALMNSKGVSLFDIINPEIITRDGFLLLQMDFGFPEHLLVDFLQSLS
Assay type: biochemical
In short: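 Fluorometric transfer assay using donor and acceptor particles with recombinant human CETP partially purified from conditioned medium of CETP-expressing CHO cells. Compound in DMSO incubated 3 hours at 37° C; fluorescence Ex 485/Em 535 nm. IC50 from dose-effect curves over 1 nM to 30 μM.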

IC50	SMILES
0.042 µM	CC(C)c1nc2c(c3c1[C@@H](c1ccc(C(F)(F)F)cn1)OC31CCOCC1)[C@@H](O)CC1(CCC1)[C@H]2O [5(8), (3S,6R,9S)-4-isopropyl-7,7-(propan-1,3-diyl)-3-(5-(trifluoromethyl)pyridin-2-yl)-2′,3′,5′,6,6′,7,8,9-octahydro-3H-spiro[furo[3,4-c]quinoline-1,4′-pyran]-6,9-diol]
0.025 µM	CC(C)c1nc2c(c3c1[C@@H](c1ccc(C(F)(F)F)cc1)OC31CCOCC1)[C@@H](O)CC(C)(C)[C@H]2O [4(2), (3R,6R,9S)-4-isopropyl-7,7-dimethyl-3-(4-(trifluoromethyl)phenyl)-2′,3′,5′,6,6′,7,8,9-octahydro-3H-spiro[furo[3,4-c]quinoline-1,4′-pyran]-6,9-diol]
0.288 µM	O[C@H]1CC2(CCC2)Cc2nc(C3CCOCC3)c3c(c21)C1(CCOCC1)O[C@@H]3c1ccc(C(F)(F)F)cn1 [1(75), (3S,9S)-7,7-(propan-1,3-diyl)-4-(tetrahydro-2H-pyran-4-yl)-3-(5-(trifluoromethyl)pyridin-2-yl)-2′,3′,5′,6,6′,7,8,9-octahydro-3H-spiro[furo[3,4-c]quinoline-1,4′-pyran]-9-ol]

Source: patent US9029544B2, “Tricyclic pyridine derivatives, medicaments containing such compounds, their use and process for their preparation” (Boehringer Ingelheim International GmbH, priority 2010, dated 2015)
